Reference: patent publication US20250066325A1, “DIRECTED DEGRON MOLECULES AND APPLICATIONS THEREOF” (The Brigham and Women's Hospital, Inc., priority 2021, published 2025)
Entries after “also recorded” stand apart in the source; their conditions may differ.

Experiments:
Assay type in all cases: cell-based
SU-DH-L1 cells = assay: Cell viability assay (CellTiter-Glo); conditions: for IC50: SU-DHL-1, SU-DH-L1 cells, 24 hours
Method: Cell Viability Assay. SU-DH-L1 cells were seeded in 30 μl of 8000 cells per well in 384-well plates pre-printed with 10 mM of the stock compounds in varying volumes using a Tecan D300e Digital Dispenser (Tecan). After 24 hours, cell viability was determined using a CellTiter-Glo Luminescent Cell Viability Assay (Promega, G7571) following the manufacturer's instructions. Dose-response curve fitting and IC50 quantification were determined with four parameter nonlinear regression analysis using GraphPad Prism v8.4.2.

ZFP91 = biological target: T1, ZFP91 (Homo sapiens, UniProt Q96JP5+Q96SW2); assay: Immunoblot of endogenous ZF protein ZFP91; conditions: for off-target degradation of endogenous ZFP91 (immunoblot): dose-dependent; for degradation potency for ZFP91 compared with pomalidomide (immunoblot): MM1.S cells
T1 construct: Immunoblots for endogenous ZF proteins ZFP91 and IKZF3 in MM1.S cells; endogenous in cells; host or cells: JURKAT, MM1.S, SU-DHL-1, H2228
T1 sequence (Q96JP5 2-570 limits assumed): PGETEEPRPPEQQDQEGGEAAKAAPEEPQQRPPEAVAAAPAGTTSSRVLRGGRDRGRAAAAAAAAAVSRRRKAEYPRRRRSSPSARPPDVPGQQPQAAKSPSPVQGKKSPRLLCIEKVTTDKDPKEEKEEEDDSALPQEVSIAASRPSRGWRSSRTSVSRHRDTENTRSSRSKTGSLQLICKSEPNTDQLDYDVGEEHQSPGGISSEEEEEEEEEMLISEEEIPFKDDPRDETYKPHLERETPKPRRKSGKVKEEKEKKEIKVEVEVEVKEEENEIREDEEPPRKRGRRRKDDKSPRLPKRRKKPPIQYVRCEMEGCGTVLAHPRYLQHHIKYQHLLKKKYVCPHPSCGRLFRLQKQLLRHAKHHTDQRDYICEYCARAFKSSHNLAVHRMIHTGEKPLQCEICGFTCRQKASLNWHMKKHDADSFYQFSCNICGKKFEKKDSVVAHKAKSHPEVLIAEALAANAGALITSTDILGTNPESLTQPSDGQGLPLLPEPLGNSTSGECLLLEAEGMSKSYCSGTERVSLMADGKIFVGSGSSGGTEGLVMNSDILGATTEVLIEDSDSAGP
T1 sequence (Q96SW2 whole entry): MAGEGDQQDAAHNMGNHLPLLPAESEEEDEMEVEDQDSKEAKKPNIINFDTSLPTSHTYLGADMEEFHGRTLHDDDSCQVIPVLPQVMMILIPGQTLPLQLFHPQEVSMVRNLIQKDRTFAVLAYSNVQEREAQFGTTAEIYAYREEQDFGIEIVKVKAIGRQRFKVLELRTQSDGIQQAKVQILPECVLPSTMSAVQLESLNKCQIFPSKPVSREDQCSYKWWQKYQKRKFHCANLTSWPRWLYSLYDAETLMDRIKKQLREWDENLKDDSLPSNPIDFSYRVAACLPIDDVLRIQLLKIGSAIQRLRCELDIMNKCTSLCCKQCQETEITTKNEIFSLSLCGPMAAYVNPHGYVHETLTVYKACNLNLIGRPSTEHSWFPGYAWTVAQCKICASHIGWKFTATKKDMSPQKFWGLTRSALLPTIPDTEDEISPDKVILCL
T1 sequence (Q16531 2-1140 partner limits assumed): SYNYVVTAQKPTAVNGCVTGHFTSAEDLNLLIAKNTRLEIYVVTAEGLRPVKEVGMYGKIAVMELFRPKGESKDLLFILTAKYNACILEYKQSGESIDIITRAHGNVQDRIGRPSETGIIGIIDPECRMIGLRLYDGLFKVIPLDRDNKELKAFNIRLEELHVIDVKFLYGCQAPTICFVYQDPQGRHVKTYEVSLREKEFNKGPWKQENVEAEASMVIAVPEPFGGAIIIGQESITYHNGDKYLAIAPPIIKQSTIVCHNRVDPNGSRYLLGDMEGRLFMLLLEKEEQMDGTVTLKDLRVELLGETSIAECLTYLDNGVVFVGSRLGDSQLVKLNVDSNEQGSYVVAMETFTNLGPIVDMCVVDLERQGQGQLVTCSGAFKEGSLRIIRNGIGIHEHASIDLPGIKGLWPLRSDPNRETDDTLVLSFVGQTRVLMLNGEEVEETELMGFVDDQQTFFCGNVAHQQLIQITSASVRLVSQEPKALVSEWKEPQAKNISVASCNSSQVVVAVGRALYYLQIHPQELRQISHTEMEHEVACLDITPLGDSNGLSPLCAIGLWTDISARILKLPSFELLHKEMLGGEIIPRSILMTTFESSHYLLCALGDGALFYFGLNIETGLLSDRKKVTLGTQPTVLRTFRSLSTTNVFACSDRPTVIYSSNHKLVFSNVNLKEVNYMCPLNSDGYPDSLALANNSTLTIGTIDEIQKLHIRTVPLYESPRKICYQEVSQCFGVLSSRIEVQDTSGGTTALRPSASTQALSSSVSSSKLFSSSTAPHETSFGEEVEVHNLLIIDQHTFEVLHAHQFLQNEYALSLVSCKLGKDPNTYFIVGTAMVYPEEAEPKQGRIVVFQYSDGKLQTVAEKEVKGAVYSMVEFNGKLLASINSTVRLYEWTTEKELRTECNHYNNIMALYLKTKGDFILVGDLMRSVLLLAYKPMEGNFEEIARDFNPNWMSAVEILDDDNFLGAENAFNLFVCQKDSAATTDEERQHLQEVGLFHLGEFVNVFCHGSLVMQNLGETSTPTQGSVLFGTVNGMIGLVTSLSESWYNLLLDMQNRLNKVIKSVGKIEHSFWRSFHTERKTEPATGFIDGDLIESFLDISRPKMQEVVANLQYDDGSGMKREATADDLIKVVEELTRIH
Method: (§1) Western blot analysis. Lysates of cells treated with different compounds were collected with ice-cold M-PER™ Mammalian Protein Extraction Reagent (ThermoFisher Scientific, 78501) with freshly added phosphatase (Sigma-Aldrich, 04906837001) and protease (Sigma-Aldrich, 04693124001) inhibitors following the manufacturer's instructions. Next, 20-50 μg of proteins were fractionated with NuPAGE™ 4-12% Bis-Tris gels (ThermoFisher Scientific, NP0335BOX) then transferred onto nitrocellulose membranes using iBot™ Transfer Stacks (ThermoFisher Scientific, IB23002) following the manufacturer's instructions. Membranes were then stained with primary antibodies in 1:1000 dilutions and secondary fluorescent antibodies in 1:3000 dilutions using iBind™ Flex Fluorescent Detection Solution Kit (ThermoFisher Scientific, SLF2019) following the manufacturer's instructions.
(§2) Primary antibodies used in this study include ZFP91 (Bethyl Laboratories, A303-245A), IKZF3/Aiolos (D1C1E) (Cell Signaling, 15103S), CRBN (D8H3S) (Cell Signaling, 71810S), ALK(D5F3) XP (Cell Signaling, 3633S), phospho-ALK (Tyr1507) (D6F1V) (Cell Signaling, 14678S), β-actin (8H10D10) Mouse mAb (Cell Signaling, 3700S). Fluorescent secondary antibodies used in this study include IRDye 680RD goat anti-mouse IgG (LI-COR Biosciences, 926-68070) and IRDye 800CW goat anti-rabbit IgG (LI-COR Biosciences, 926-32211). Western blot detection was performed using an Odyssey CLx Imaging System (LI-COR Biosciences). Quantification of the relative area and density values of western blot bands were carried out using ImageJ v2.1.0 following the ImageJ User Guide for gel analysis (https://imagej.nih.gov/ij/docs/guide/). Quantified values were normalized by values for loading controls such as β-actin. For phospho NPM-ALK, quantified values were normalized by the values for total ALK.

IKZF3 = biological target: T2, IKZF3 (Homo sapiens, UniProt Q96SW2+Q9UKT9); assay: Immunoblot of endogenous ZF protein IKZF3; conditions: for off-target degradation of endogenous IKZF3 (immunoblot): JURKAT cells, dose-dependent; for degradation potency for IKZF3 compared with pomalidomide (immunoblot): MM1.S cells
T2 construct: Immunoblots for endogenous ZF proteins ZFP91 and IKZF3 in MM1.S cells; endogenous in cells; host or cells: JURKAT, MM1.S
T2 sequence (Q9UKT9 whole entry): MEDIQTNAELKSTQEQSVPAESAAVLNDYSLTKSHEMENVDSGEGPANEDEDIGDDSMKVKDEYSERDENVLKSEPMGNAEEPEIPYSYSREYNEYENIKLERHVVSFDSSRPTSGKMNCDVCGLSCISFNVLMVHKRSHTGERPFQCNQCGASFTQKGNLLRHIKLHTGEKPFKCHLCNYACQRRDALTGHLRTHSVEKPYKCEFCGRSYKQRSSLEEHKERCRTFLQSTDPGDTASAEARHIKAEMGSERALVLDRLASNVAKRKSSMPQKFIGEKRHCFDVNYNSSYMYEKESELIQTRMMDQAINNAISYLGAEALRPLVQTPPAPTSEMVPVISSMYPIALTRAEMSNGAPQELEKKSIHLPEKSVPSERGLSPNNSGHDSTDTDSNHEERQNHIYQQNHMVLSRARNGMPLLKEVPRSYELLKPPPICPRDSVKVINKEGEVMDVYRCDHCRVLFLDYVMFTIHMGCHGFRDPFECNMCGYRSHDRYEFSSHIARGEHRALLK
T2 sequence (Q96SW2 whole entry): as the sequence (Q96SW2 whole entry) above
T2 sequence (Q16531 2-1140 partner limits assumed): as the sequence (Q16531 2-1140 partner limits assumed) above
Method: as §1, §2

[1] = system: ZF degrons fused to eGFP in U2OS cells; assay: Automated high-content imaging assay of ZF degron-tagged eGFP degradation (off-target profiling); conditions: U2OS ZF degron reporter cells, 24 hours, doses 4.3 nM to 20 μM
From the text: Development and validation of an off-target profiling platform for PROTACs. To profile the ZF degradation propensity of pomalidomide and its analogs, an automated high-content imaging assay was first developed (FIG. 1A). For this platform, 23-amino acid ZF degrons of 12 ZF proteins were selected that are reportedly degraded by pomalidomide and two ZFs that are not.^2 These ZF degrons were inserted into a lentiviral degradation reporter vector (cilantro 2) to compare the fluorescence of ZF-tagged enhanced green fluorescent protein (eGFP) to untagged mCherry with high-content imaging (FIG. 1A). With this assay, wherein compounds are scanned against the 14 stable cell lines containing our tagged ZF-proteins, dose-dependent degradation of ZF degron-tagged eGFP by pomalidomide was reliably detected with a robust readout (Z-prime value of 0.8) (FIG. 5). […] Unlike mass spectrometry, this reporter-based method is not limited by cell-type-specific expression levels of analyte proteins nor by the accessibility to ZFs in the context of full-length proteins that are engaged in protein complexes. […]
The fluorescence intensity of eGFP was normalized to that of mCherry for every cell. […] The degradation score was then calculated by taking the sum of the GFP degradation fractions across all doses for each compound. […]

MOLT4 and KELLY cells = assay: Global proteomic studies (TMT) of IMiDs in ZF protein-relevant cell lines; conditions: 1 μM
Method: Global proteomic studies. To validate the results from the imagining-based experiments, Applicant performed proteomics studies in two ZF protein-relevant cell lines (MOLT4 and KELLY).^26 Briefly, Applicant treated the ZF protein-relevant cells (MOLT4 and KELLY) with IMiDs or PROTACs at 1 μM concentrations, and the protein lysates were prepared from the cells were digested, and labeled using a TMT-based quantification kit. Labeled samples were subjected to LC/MS on an Orbitrap Eclipse Tribrid mass spectrometer. Applicant used the Proteome Discoverer software pipeline and identified the final hits by searching against the uniport database.

[2] = listed as Thalidomide analog with amino group on C5 position

| off-target degradation of endogenous ZFP91 (immunoblot) (ZFP91; JURKAT cells) | off-target degradation of endogenous IKZF3 (immunoblot) (IKZF3) | SMILES | IC50 (SU-DH-L1 cells; Homo sapiens, Example 1) [µM] | off-target degradation of ZF degron-tagged eGFP [1] | other results |
| --- | --- | --- | --- | --- | --- |
| – | – | Cc1cc(Nc2ncc(Cl)c(Nc3ccccc3S(=O)(=O)C(C)C)n2)c(OC(C)C)cc1C1CCNCC1 [ceritinib] | 0.0693 | – | – |
| off-target degradation | off-target degradation | CC[C@H](C(=O)N1CCCC[C@H]1C(=O)O[C@H](CCc1ccc(OC)c(OC)c1)c1ccccc1OCC(=O)NCCCCCCOc1cccc2c1C(=O)N(C1CCC(=O)NC1=O)C2=O)c1cc(OC)c(OC)c(OC)c1 (stereo partly shown) [dTAG-13] | – | – | – |
| off-target degradation | off-target degradation | Cc1cc(Nc2ncc(Cl)c(Nc3ccccc3S(=O)(=O)C(C)C)n2)c(OC(C)C)cc1C1CCN(CC(=O)NCCNc2cccc3c2C(=O)N(C2CCC(=O)NC2=O)C3=O)CC1 (stereo not shown) [MS4078] | 0.195 | high level of off-target ZF degradation; also recorded: ZNF517, ZNF654, ZNF276, ZNF653, and PATZ1 | off-target degradation of endogenous ZFP91 (immunoblot) (ZFP91; SU-DHL-1 and H2228 cell lines): off-target degradation; EC50 (SU-DH-L1 cells; Homo sapiens, SU-DHL-1 cells, Example 3 numbering): 0.195 µM; fold lowering of potency relative to ceritinib (SU-DH-L1 cells; IC50 ratio, Example 1): 2.8 fold |
| – | – | Nc1cccc2c1C(=O)N(C1CCC(=O)NC1=O)C2=O (stereo not shown) [Pomalidomide] | – | degraded all 12 ZF degrons | off-target profile in global proteomics (MOLT4 and KELLY cells): exhibited the commonly reported off-targets |
| – | – | Nc1ccc2c(c1)C(=O)N(C1CCC(=O)NC1=O)C2=O (stereo not shown) [5-aminothalidomide] | – | – | degradation potency for ZFP91 compared with pomalidomide (immunoblot) (ZFP91): decrease in overall degradation potency; degradation potency for ZFP91 compared with pomalidomide (immunoblot) (ZFP91; [2]): decrease in the potency; degradation potency for IKZF3 compared with pomalidomide (immunoblot) (IKZF3): decrease in overall degradation potency; degradation potency for IKZF3 compared with pomalidomide (immunoblot) (IKZF3; [2]): decrease in the potency |
